Laboratory results taken from publication PMC3433420 (PLoS ONE, 2012).
Residues, ends and D or L forms follow the SMILES beside them.

Key:
[1] = biological target: T1, PTPN11-NC tandem SH2 domains (Homo sapiens, UniProt Q06124); assay: FP saturation binding assay
T1 sequence (Q06124 6-216 limits assumed): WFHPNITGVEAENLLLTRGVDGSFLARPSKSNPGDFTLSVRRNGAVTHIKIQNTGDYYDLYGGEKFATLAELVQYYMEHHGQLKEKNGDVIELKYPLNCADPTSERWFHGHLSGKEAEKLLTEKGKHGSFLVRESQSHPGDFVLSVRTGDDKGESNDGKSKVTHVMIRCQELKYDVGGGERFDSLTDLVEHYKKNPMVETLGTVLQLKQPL

SHC1-PTB domain = biological target: T2, SHC1-PTB domain (Homo sapiens, UniProt P29353); assay: FP saturation binding assay
T2 sequence (P29353 156-339 limits assumed): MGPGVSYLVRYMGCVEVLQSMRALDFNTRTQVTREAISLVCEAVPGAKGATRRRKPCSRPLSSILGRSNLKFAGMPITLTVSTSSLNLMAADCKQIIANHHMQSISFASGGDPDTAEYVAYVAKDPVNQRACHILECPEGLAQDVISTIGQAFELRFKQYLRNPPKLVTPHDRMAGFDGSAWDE

PIK3R1-N SH2 domain = biological target: T3, PIK3R1-N SH2 domain (Homo sapiens, UniProt P27986); assay: biochemical; format: binding; conditions: high-confidence ErbB interactions
T3 construct: thioredoxin; made in house; host or cells: E. coli BL21(DE3)pLysS
T3 sequence (P27986 333-428 limits assumed): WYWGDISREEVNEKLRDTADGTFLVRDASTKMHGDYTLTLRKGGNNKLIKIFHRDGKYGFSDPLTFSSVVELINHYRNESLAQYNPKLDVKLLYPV

PIK3R3-C SH2 domain = biological target: T4, PIK3R3-C SH2 domain (Homo sapiens, UniProt Q92569); assay: biochemical; format: binding; conditions: Protein PIK3R3-C; FP saturation binding, high-confidence ErbB interactions; mean over replicate hits
T4 construct: thioredoxin; made in house; host or cells: E. coli BL21(DE3)pLysS

SH2 and PTB domains [2] = biological target: T5, SH2 and PTB domains (Homo sapiens, UniProt P12931); assay: In-house protein microarrays (with or without 5 mM DTT), protein named per line; format: binding; conditions: protein SRC
T5 construct: thioredoxin; made in house; host or cells: BL21(DE3)pLysS E. coli
T5 sequence (P12931 whole entry, the tested form may be a part): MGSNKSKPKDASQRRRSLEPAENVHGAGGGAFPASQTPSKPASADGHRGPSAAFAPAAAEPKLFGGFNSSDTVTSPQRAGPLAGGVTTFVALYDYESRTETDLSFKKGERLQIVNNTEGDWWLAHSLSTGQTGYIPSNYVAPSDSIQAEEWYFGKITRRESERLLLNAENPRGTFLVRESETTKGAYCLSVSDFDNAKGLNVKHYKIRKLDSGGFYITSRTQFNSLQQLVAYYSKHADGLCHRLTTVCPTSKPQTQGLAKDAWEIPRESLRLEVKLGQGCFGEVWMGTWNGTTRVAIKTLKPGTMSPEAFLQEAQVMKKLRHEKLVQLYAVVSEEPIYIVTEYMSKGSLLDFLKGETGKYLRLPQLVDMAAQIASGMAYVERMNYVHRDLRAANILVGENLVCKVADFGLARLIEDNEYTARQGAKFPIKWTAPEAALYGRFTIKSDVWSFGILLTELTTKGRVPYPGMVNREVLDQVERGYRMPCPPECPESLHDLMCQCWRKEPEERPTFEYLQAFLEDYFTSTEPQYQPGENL
How it was run: (§1)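 KD values come from rhodamine fluorescence of duplicate spots after subtraction of a thioredoxin control. Domains were printed at ~40 µM on aldehyde slides, blocked 1 h at room temperature in pH 7.8 HEPES/KCl buffer with 5 mM DTT and 1% BSA, then peptide-probed.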

SH2 and PTB domains [3] = biological target: T6, SH2 and PTB domains (Homo sapiens, UniProt O00459); assay: as above; format: binding
T6 construct: thioredoxin; made in house; host or cells: BL21(DE3)pLysS E. coli
T6 sequence (O00459 whole entry, the tested form may be a part): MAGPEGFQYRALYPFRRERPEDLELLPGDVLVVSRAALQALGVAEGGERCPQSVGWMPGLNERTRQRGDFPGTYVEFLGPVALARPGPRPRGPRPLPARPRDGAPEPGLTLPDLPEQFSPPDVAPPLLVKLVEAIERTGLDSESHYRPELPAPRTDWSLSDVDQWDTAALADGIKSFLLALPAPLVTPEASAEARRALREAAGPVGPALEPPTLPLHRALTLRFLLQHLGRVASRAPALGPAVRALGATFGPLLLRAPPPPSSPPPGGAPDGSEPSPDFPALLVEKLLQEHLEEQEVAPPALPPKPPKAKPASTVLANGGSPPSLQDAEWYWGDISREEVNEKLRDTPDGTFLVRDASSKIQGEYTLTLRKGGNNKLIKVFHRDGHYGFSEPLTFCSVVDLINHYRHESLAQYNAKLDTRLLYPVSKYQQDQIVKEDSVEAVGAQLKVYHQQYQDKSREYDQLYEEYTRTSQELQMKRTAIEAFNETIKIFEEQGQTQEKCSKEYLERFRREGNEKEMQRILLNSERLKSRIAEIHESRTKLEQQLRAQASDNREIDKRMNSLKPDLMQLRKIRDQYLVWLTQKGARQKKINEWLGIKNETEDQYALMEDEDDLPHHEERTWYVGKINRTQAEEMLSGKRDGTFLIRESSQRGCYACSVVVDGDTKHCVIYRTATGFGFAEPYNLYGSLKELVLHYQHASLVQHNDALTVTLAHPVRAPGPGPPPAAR
How it was run: as §1

SH2 and PTB domains [4] = biological target: T7, SH2 and PTB domains (Homo sapiens, UniProt P51451); assay: as above; format: binding; conditions: protein BLK
T7 construct: thioredoxin; made in house; host or cells: BL21(DE3)pLysS E. coli
T7 sequence (P51451 whole entry, the tested form may be a part): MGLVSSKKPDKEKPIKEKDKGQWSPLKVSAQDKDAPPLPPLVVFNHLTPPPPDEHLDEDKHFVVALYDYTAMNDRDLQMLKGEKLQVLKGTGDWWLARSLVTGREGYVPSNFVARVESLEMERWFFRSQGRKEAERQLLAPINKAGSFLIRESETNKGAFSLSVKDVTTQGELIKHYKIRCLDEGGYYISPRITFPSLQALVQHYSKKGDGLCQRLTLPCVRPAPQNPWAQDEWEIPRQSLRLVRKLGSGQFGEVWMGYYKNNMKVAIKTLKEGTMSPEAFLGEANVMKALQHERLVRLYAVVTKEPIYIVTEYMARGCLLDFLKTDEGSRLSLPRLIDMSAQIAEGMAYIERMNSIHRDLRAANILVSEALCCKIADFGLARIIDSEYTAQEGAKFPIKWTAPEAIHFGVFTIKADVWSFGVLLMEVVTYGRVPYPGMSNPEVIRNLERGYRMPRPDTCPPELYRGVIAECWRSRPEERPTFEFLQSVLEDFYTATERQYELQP
How it was run: as §1

PTPN11-N SH2 domain = biological target: T8, PTPN11-N SH2 domain (Homo sapiens, UniProt Q06124); assay: FP saturation binding assay
T8 sequence (Q06124 6-102 limits assumed): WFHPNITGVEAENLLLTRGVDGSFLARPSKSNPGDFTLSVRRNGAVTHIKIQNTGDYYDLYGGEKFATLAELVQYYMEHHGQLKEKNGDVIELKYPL

GRB7 SH2 domain = GRB7 SH2 domain (Homo sapiens, UniProt Q14451); assay: FP saturation binding assay
Sequence of GRB7 SH2 domain (Q14451 431-527 limits assumed): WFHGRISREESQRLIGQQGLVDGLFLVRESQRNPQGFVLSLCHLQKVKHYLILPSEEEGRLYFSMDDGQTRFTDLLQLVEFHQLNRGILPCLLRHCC

[5] = Protein PIK3R1-N, FP saturation binding, mean over replicate hits
[6] = PM assay replicate # 39307, array fabrication # 39286
[7] = PM assay replicate # 39337, array fabrication # 39329
[8] = PM assay replicate # 39351, array fabrication # 39336
[9] = PM assay replicate # 39352, array fabrication # 39336
[10] = PM assay replicate # 39336, array fabrication # 39329
[11] = PM assay replicate # 39603, array fabrication # 39392

CC(C)C[C@H](NC(=O)[C@H](CC(N)=O)NC(=O)[C@@H](N)CC(=O)O)C(=O)N[C@@H](Cc1ccc(O)cc1)C(=O)N[C@@H](Cc1ccc(OP(=O)(O)O)cc1)C(=O)N[C@@H](Cc1c[nH]c2ccccc12)C(=O)N[C@@H](CC(=O)O)C(=O)N[C@@H](CCC(N)=O)C(=O)N[C@@H](CC(=O)O)C(=O)N1CCC[C@H]1C(=O)N1CCC[C@H]1C(=O)N[C@@H](CCC(=O)O)C(=O)N[C@@H](CC(=O)O)C(=O)O [ErbB2 1222 13-mer] (HELM PEPTIDE1{D.N.L.Y.[O=C([C@H](Cc1ccc(OP(=O)(O)O)cc1)N[*:1])[*:2]].W.D.Q.D.P.P.E.D}$$$$V2.0)
Kd [1]: 9450 nM | Kd (SHC1-PTB domain): 2960 nM | Kd (PIK3R1-N SH2 domain; [5]): 10700 nM

CC(C)C[C@H](NC(=O)[C@H](Cc1ccc(OP(=O)(O)O)cc1)NC(=O)[C@H](CCC(=O)O)NC(=O)[C@H](CCC(=O)O)NC(=O)[C@H](C)NC(=O)[C@@H](N)CC(=O)O)C(=O)N[C@H](C(=O)N1CCC[C@H]1C(=O)N[C@@H](CCC(N)=O)C(=O)N[C@@H](CCC(N)=O)C(=O)NCC(=O)N[C@@H](Cc1ccccc1)C(=O)N[C@@H](CC(=O)O)C(=O)O)C(C)C [ErbB2 1023 13-mer] (HELM PEPTIDE1{D.A.E.E.[O=C([C@H](Cc1ccc(OP(=O)(O)O)cc1)N[*:1])[*:2]].L.V.P.Q.Q.G.F.D}$$$$V2.0)
Kd (PIK3R3-C SH2 domain): 5800 nM | Kd [1]: 10600 nM | Kd (PIK3R1-N SH2 domain; [5]): 15800 nM

CCN(CC)c1ccc2c(-c3ccc(C(=O)N[C@@H](CC(N)=O)C(=O)NCC(=O)N4CCC[C@H]4C(=O)N4CCC[C@H]4C(=O)N[C@@H](CCCCN)C(=O)N[C@@H](C)C(=O)N[C@@H](CCC(=O)O)C(=O)N[C@@H](CC(=O)O)C(=O)N[C@@H](CCC(=O)O)C(=O)N[C@@H](Cc4ccc(OP(=O)(O)O)cc4)C(=O)N[C@H](C(=O)N[C@@H](CC(N)=O)C(=O)N[C@@H](CCC(=O)O)C(=O)N4CCC[C@H]4C(=O)N[C@@H](CC(C)C)C(=O)N[C@@H](Cc4ccc(O)cc4)C(=O)N[C@@H](CC(C)C)C(=O)N[C@@H](CC(=O)O)C(=O)O)C(C)C)cc3C(=O)[O-])c3ccc(=[N+](CC)CC)cc-3oc2c1 [ErbB4 1202 (18-mer)] (HELM PEPTIDE1{[CCN(CC)c1ccc2c(-c3ccc(C(=O)[*:2])cc3C(=O)[O-])c3ccc(=[N+](CC)CC)cc-3oc2c1].N.G.P.P.K.A.E.D.E.[O=C([C@H](Cc1ccc(OP(=O)(O)O)cc1)N[*:1])[*:2]].V.N.E.P.L.Y.L.D}$$$$V2.0)
Kd (SH2 and PTB domains [2]; [6]): 400 nM | Kd (SH2 and PTB domains [3]; protein PIK3R2-NC, PM assay replicate # 39337, array fabrication # 39329): 650 nM | Kd (SH2 and PTB domains [4]; [6]): 450 nM | Kd (SH2 and PTB domains [4]; [7]): 7840 nM | Kd (SH2 and PTB domains [4]; [8]): 2290 nM | Kd (SH2 and PTB domains [4]; [9]): 2390 nM

CC(C)[C@H](NC(=O)[C@H](CC(=O)O)NC(=O)[C@@H]1CCCN1C(=O)[C@H](CCC(N)=O)NC(=O)[C@H](CC(N)=O)NC(=O)[C@@H](NC(=O)[C@H](Cc1ccc(OP(=O)(O)O)cc1)NC(=O)[C@H](CCC(=O)O)NC(=O)[C@@H]1CCCN1C(=O)[C@H](CCC(N)=O)NC(=O)[C@@H]1CCCN1)C(C)C)C(=O)N[C@@H](CCCNC(=N)N)C(=O)N[C@@H](CC(=O)O)C(=O)O [ErbB2 1139 13-mer] (HELM PEPTIDE1{P.Q.P.E.[O=C([C@H](Cc1ccc(OP(=O)(O)O)cc1)N[*:1])[*:2]].V.N.Q.P.D.V.R.D}$$$$V2.0)
Kd [1]: 8710 nM | Kd (PTPN11-N SH2 domain): 8860 nM

CC[C@H](C)[C@H](NC(=O)[C@H](CC(N)=O)NC(=O)[C@H](CC(N)=O)NC(=O)[C@H](CCCCN)NC(=O)[C@H](CC(C)C)NC(=O)[C@H](Cc1ccc(OP(=O)(O)O)cc1)NC(=O)[C@H](CCC(=O)O)NC(=O)[C@H](C)NC(=O)[C@H](CCCCN)NC(=O)CNC(=O)[C@H](CC(C)C)NC(=O)[C@@H](NC(=O)[C@H](CC(N)=O)NC(=O)[C@H](C)NC(=O)[C@@H](N)Cc1ccccc1)[C@@H](C)O)C(=O)N[C@@H](CC(C)C)C(=O)N[C@@H](CO)C(=O)N[C@@H](CC(=O)O)C(=O)O [ErbB4 pY1221 (18-mer)] (HELM PEPTIDE1{F.A.N.T.L.G.K.A.E.[O=C([C@H](Cc1ccc(OP(=O)(O)O)cc1)N[*:1])[*:2]].L.K.N.N.I.L.S.D}$$$$V2.0)
Kd (SH2 and PTB domains [2]; [6]): 440 nM | Kd (SH2 and PTB domains [3]; protein PIK3R2-NC, PM assay replicate # 39307, array fabrication # 39286): 1340 nM | Kd (SH2 and PTB domains [4]; [6]): 580 nM | Kd (SH2 and PTB domains [4]; [8]): 1150 nM | Kd (SH2 and PTB domains [4]; [9]): 1160 nM

CC(C)C[C@H](NC(=O)[C@@H]1CCCN1C(=O)[C@H](C)NC(=O)[C@@H](NC(=O)[C@H](Cc1ccc(OP(=O)(O)O)cc1)NC(=O)CNC(=O)[C@H](CC(=O)O)NC(=O)[C@@H](NC(=O)[C@@H](N)CCC(=O)O)[C@@H](C)O)C(C)C)C(=O)N[C@H](C(=O)N[C@@H](CS)C(=O)N[C@@H](CO)C(=O)N[C@@H](CC(=O)O)C(=O)O)[C@@H](C)O [ErbB2 pY1127]
Kd (SH2 and PTB domains [2]; [10]): 35 nM | Kd (SH2 and PTB domains [2]; [7]): 380 nM | Kd (SH2 and PTB domains [2]; [11]): 250 nM | Kd (SH2 and PTB domains [3]; protein PIK3R2-N, PM assay replicate # 39336, array fabrication # 39329): 40 nM | Kd (SH2 and PTB domains [3]; protein PIK3R2-N, PM assay replicate # 39337, array fabrication # 39329): 150 nM | Kd (SH2 and PTB domains [4]; [10]): 3200 nM | Kd (SH2 and PTB domains [4]; [7]): 460 nM | Kd (SH2 and PTB domains [4]; [11]): 2000 nM

CSCC[C@H](NC(=O)[C@H](CCC(=O)O)NC(=O)[C@H](CCC(=O)O)NC(=O)[C@H](Cc1ccc(OP(=O)(O)O)cc1)NC(=O)CNC(=O)[C@H](CCC(N)=O)NC(=O)[C@H](CCC(=O)O)NC(=O)[C@@H](N)CO)C(=O)N[C@@H](CCCNC(=N)N)C(=O)N[C@@H](C)C(=O)N[C@@H](Cc1ccccc1)C(=O)N[C@@H](CCC(N)=O)C(=O)N[C@@H](CC(=O)O)C(=O)O [ErbB3 1289 13-mer] (HELM PEPTIDE1{S.E.Q.G.[O=C([C@H](Cc1ccc(OP(=O)(O)O)cc1)N[*:1])[*:2]].E.E.M.R.A.F.Q.D}$$$$V2.0)
Kd (PIK3R1-N SH2 domain; protein PIK3R1-N, FP, mean of replicate hits): 250 nM

DNLYpYWDQDPPEd [ErbB2 pY1222]
interaction with GRB7 on the FP platform (GRB7 SH2 domain; peptides queried on both FP and PM platforms): only displayed interactions with GRB7 from the PM platform

CC(C)C[C@H](NC(=O)[C@@H]1CCCN1)C(=O)N[C@@H](CCC(N)=O)C(=O)N[C@@H](CCCNC(=N)N)C(=O)N[C@@H](Cc1ccc(OP(=O)(O)O)cc1)C(=O)N[C@@H](CO)C(=O)N[C@@H](CCC(=O)O)C(=O)N[C@@H](CC(=O)O)C(=O)N1CCC[C@H]1C(=O)N[C@H](C(=O)N[C@H](C(=O)N1CCC[C@H]1C(=O)N[C@@H](CC(=O)O)C(=O)O)C(C)C)[C@@H](C)O [ErbB2 pY1112] (HELM PEPTIDE1{P.L.Q.R.[O=C([C@H](Cc1ccc(OP(=O)(O)O)cc1)N[*:1])[*:2]].S.E.D.P.T.V.P.D}$$$$V2.0)
Kd (SH2 and PTB domains [2]; PM assay replicate # 39331, array fabrication # 39329): 183210 nM

CC(C)C[C@H](NC(=O)[C@H](Cc1ccc(OP(=O)(O)O)cc1)NC(=O)[C@H](CC(C)C)NC(=O)[C@@H]1CCCN1C(=O)[C@H](CCC(=O)O)NC(=O)[C@H](CC(N)=O)NC(=O)[C@@H](NC(=O)[C@H](Cc1ccc(O)cc1)NC(=O)[C@H](CCC(=O)O)NC(=O)[C@H](CC(=O)O)NC(=O)[C@@H](N)CCC(=O)O)C(C)C)C(=O)N[C@@H](CC(N)=O)C(=O)N[C@H](C(=O)N[C@@H](Cc1ccccc1)C(=O)N[C@@H](C)C(=O)N[C@@H](CC(N)=O)C(=O)N[C@H](C(=O)N[C@@H](CC(=O)O)C(=O)O)[C@@H](C)O)[C@@H](C)O [ErbB4 1208 18-mer] (HELM PEPTIDE1{E.D.E.Y.V.N.E.P.L.[O=C([C@H](Cc1ccc(OP(=O)(O)O)cc1)N[*:1])[*:2]].L.N.T.F.A.N.T.D}$$$$V2.0)
Kd (GRB7 SH2 domain; Mean KD, protein GRB7, high-confidence ErbB interactions, mean of replicate hits): 9990 nM
